Measured values as given in patent publication US20140163099A1, “ANTIMICROBIAL COMPOSITION” (TAKASAGO INTERNATIONAL CORPORATION, priority 2011, published 2014).
In brackets after ≈: the same amount, converted by molar mass.

Tests used:
Format in all cases: cell-based
[1] = tested on: Staphylococcus epidermidis (JCM2414T); assay: Growth inhibition activity (MIC, agar) against aerobic bacteria; conditions: Staphylococcus epidermidis, strain JCM2414T; Mueller Hinton Agar, 37 degrees C. overnight; read-out: MIC (Minimum Inhibitory Concentration)
Experimental: (§1) In the present invention, the growth inhibition activity, which is an indicator of the antimicrobial activity, is evaluated by determining the Minimum Inhibitory Concentration (MIC) with an agar or liquid medium.
(§2) In the test for the growth inhibition activity, the following strains were used as skin-related bacteria: • Staphylococcus epidermidis: Staphylococcus epidermidis (JCM2414T and ATCC 12228) • Staphylococcus aureus: Staphylococcus aureus (NBRC12732 and JCM2151) • Skin indigenous bacteria which introduce a superficial infection: Corynebacterium minutissimum (NBRC15361T) • Armpit odor-causing bacteria: Corynebacterium xerosis (JCM1324)
(§3) The test strains were cultured in the liquid medium which the Bioresource center recommends, and then the test strains were subcultured to a Mueller Hinton Broth (Difco) at 30 degrees C. The grown bacteria were diluted to 10^6 CFU/ml with saline to adjust the bacteria fluids for inoculation.
(§4) Furthermore, in order to examine the growth inhibition activities against the bacteria by the above cooling agents, the concentration of the cooling agents: (3S)-CA20, (3R)-CA20, CA1, CA5, CA15, CA55 or CA MGH was diluted with ethanol to the required level of concentration for the determining the Minimum Inhibitory Concentration to produce the sample liquids.
(§5) Next, 100 μL of each sample liquid was added to 10 mL of a Mueller Hinton Agar (Difco) agar medium solution in a soluble state, and each agar medium solution was poured into a petri dish and solidified to prepare test plates having several concentrations of the sample liquids (several concentrations of the above cooling agents). Subsequently, 5 μL of the above bacteria fluids for inoculation were stamped on the test plates, and then the test plates were cultured at 37 degrees C. overnight.
(§6) In this way, the growth inhibition activities by (3S)-CA20, (3R)-CA20, CA1, CA5, CA15, CA55, CA MGH were examined. The minimum concentration of the cooling agent in which the growth of bacteria could not be confirmed was considered as the MIC (Minimum Inhibitory Concentration).
(§7) The minimum concentration of the cooling agent in which the grown strain could not be confirmed was considered as the MIC (Minimum Inhibitory Concentration).

[2] = tested on: Staphylococcus aureus (NBRC12732); assay: as above; conditions: Staphylococcus aureus; strain NBRC12732; Mueller Hinton Agar, 37 degrees C. overnight; read-out: MIC (Minimum Inhibitory Concentration)
Experimental: as §1, §2, §3, §4, §5, §6, §7

[3] = tested on: Corynebacterium xerosis (JCM1324); assay: as above; conditions: Corynebacterium xerosis; strain JCM1324; Mueller Hinton Agar, 37 degrees C. overnight; read-out: MIC (Minimum Inhibitory Concentration)
Experimental: as §1, §2, §3, §4, §5, §6, §7

[4] = tested on: Bacteroides fragilis (GAI5560); assay: Growth inhibition activity (MIC, agar) against anaerobic bacteria; conditions: Bacteroides fragilis, 72 h; strain GAI5560; Trypticase Soy Broth agar, 37 degrees C. for 3 days; read-out: MIC (Minimum Inhibitory Concentration)
Experimental: as §1
(§8) In the test for growth inhibition activity, the following strains were used: • Acne bacteria: Propionibacterium acnes (JCM6473) and (ATCC6919) • Abscess bacteria: Bacteroides fragilis (GAI5560) • Cavity-causing bacteria: Streptococcus mutans (JCM5175), Actinomyces naeslundii (JCM8350) and Actinomyces viscosus (JCM8352) • Periodontal pathogen: Fusobacterium nucleatum (JCM6328), Porphyromonas gingivalis (JCM8525), Prevotella nigrescens (JCM6322)
(§9) The test strains were cultured in a GAM medium (Nissui Pharmaceutical Co., LTD), a Schaedler Broth (BBL) or a Trypticase Soy Broth (BBL) liquid medium, and then the grown bacteria were diluted in saline to prepare turbidity 0.5 McFarland of the bacteria fluids for inoculation. The bacteria were cultured at 37 degrees C. for 3 days under an anaerobic condition by using AnaeroPack® from MGC.
as §4, with “cooling agent,” for “cooling agents,”, “of concentrations” for “of concentration”
(§10) Next, 100 μL of each sample liquid was added to 10 mL of a Trypticase Soy Broth agar medium solution in a soluble state, and each agar medium solution was poured into a petri dish and solidified, to prepare the test plates. Subsequently, 5 μL of above the bacteria fluids for inoculation were stamped on the test plates, and then the test plates were cultured at 37 degrees C. for 3 days.
(§11) The minimum concentration of the cooling agent in which the growth of bacteria could not be confirmed was considered as the MIC (Minimum Inhibitory Concentration).
as §11

[5] = tested on: Streptococcus mutans (JCM5175); assay: as above; conditions: Streptococcus mutans, 72 h; strain JCM5175; Trypticase Soy Broth agar, 37 degrees C. for 3 days; read-out: MIC (Minimum Inhibitory Concentration)
Experimental: as §1, §8, §9
as §4, with “cooling agent,” for “cooling agents,”, “of concentrations” for “of concentration”
as §10, §11, §11

[6] = tested on: Prevotella nigrescens (JCM6322); assay: as above; conditions: Prevotella nigrescens, JCM6322, 72 h, strain JCM6322; Trypticase Soy Broth agar, 37 degrees C. for 3 days; read-out: MIC (Minimum Inhibitory Concentration)
Experimental: as §1, §8, §9
as §4, with “cooling agent,” for “cooling agents,”, “of concentrations” for “of concentration”
as §10, §11, §11

[7] = tested on: Actinomyces naeslundii (JCM8350); assay: as above; conditions: Actinomyces naeslundii, JCM8350, 72 h, strain JCM8350; Trypticase Soy Broth agar, 37 degrees C. for 3 days; read-out: MIC (Minimum Inhibitory Concentration)
Experimental: as §1, §8, §9
as §4, with “cooling agent,” for “cooling agents,”, “of concentrations” for “of concentration”
as §10, §11, §11

[8] = tested on: Propionibacterium acnes (JCM6473); assay: as above; conditions: Cutibacterium acnes, 72 h; strain JCM6473; Trypticase Soy Broth agar, 37 degrees C. for 3 days; read-out: MIC (Minimum Inhibitory Concentration)
Experimental: as §1, §8, §9
as §4, with “cooling agent,” for “cooling agents,”, “of concentrations” for “of concentration”
as §10, §11, §11

[9] = tested on: Actinomyces viscosus (JCM8352); assay: as above; conditions: Actinomyces viscosus, 72 h; strain JCM8352; Trypticase Soy Broth agar, 37 degrees C. for 3 days; read-out: MIC (Minimum Inhibitory Concentration)
Experimental: as §1, §8, §9
as §4, with “cooling agent,” for “cooling agents,”, “of concentrations” for “of concentration”
as §10, §11, §11

[10] = tested on: Propionibacterium acnes (ATCC6919); assay: as above; conditions: Cutibacterium acnes, ATCC6919, 72 h, strain ATCC6919; Trypticase Soy Broth agar, 37 degrees C. for 3 days; read-out: MIC (Minimum Inhibitory Concentration)
Experimental: as §1, §8, §9
as §4, with “cooling agent,” for “cooling agents,”, “of concentrations” for “of concentration”
as §10, §11, §11

[11] = tested on: Staphylococcus epidermidis (ATCC 12228); assay: Growth inhibition activity (MIC, agar) against aerobic bacteria; conditions: strain ATCC12228, Mueller Hinton Agar, 37 degrees C. overnight, read-out: MIC (Minimum Inhibitory Concentration)
Experimental: as §1, §2, §3, §4, §5, §6, §7

[12] = tested on: Fusobacterium nucleatum (JCM6328); assay: Growth inhibition activity (MIC, agar) against anaerobic bacteria; conditions: 72 h, strain JCM6328, Trypticase Soy Broth agar, 37 degrees C. for 3 days, read-out: MIC (Minimum Inhibitory Concentration)
Experimental: as §1, §8, §9
as §4, with “cooling agent,” for “cooling agents,”, “of concentrations” for “of concentration”
as §10, §11, §11

MIC [1] | MIC [2] | MIC [3] | MIC [4] | MIC [5] | MIC [6] | MIC [7] | MIC [8] | MIC [9] | MIC [10] | MIC [11] | MIC [12] | Compound
100 µg/mL (≈ 0.413 mM) | 200 µg/mL (≈ 0.825 mM) | 100 µg/mL (≈ 0.413 mM) | 100 µg/mL (≈ 0.413 mM) | 200 µg/mL (≈ 0.825 mM) | 100 µg/mL (≈ 0.413 mM) | 100 µg/mL (≈ 0.413 mM) | 200 µg/mL (≈ 0.825 mM) | 100 µg/mL (≈ 0.413 mM) | 200 µg/mL (≈ 0.825 mM) | – | – | CC(O)CC(=O)OC1CC(C)CCC1C(C)C [(3S)-CA20, menthyl 3-hydroxybutanoate]
800 µg/mL (≈ 3.99 mM) | 800 µg/mL (≈ 3.99 mM) | 800 µg/mL (≈ 3.99 mM) | 200 µg/mL (≈ 0.998 mM) | 800 µg/mL (≈ 3.99 mM) | 200 µg/mL (≈ 0.998 mM) | 800 µg/mL (≈ 3.99 mM) | 400 µg/mL (≈ 2 mM) | 200 µg/mL (≈ 0.998 mM) | 400 µg/mL (≈ 2 mM) | 800 µg/mL (≈ 3.99 mM) | 400 µg/mL (≈ 2 mM) | CC1CCC(C(C)C)C(OCCO)C1 (stereo not shown) [CA5, 2-(menthoxy)ethanol]
800 µg/mL (≈ 3.47 mM) | 1600 µg/mL (≈ 6.95 mM) | 800 µg/mL (≈ 3.47 mM) | 100 µg/mL (≈ 0.434 mM) | 800 µg/mL (≈ 3.47 mM) | 200 µg/mL (≈ 0.868 mM) | 800 µg/mL (≈ 3.47 mM) | 800 µg/mL (≈ 3.47 mM) | < 50 µg/mL | 800 µg/mL (≈ 3.47 mM) | 1600 µg/mL (≈ 6.95 mM) | 800 µg/mL (≈ 3.47 mM) | CC1CCC(C(C)C)C(OCC(O)CO)C1 (stereo not shown) [CA10, 3-menthoxypropane-1,2-diol, reference compound]
400 µg/mL (≈ 1.87 mM) | 400 µg/mL (≈ 1.87 mM) | 400 µg/mL (≈ 1.87 mM) | 100 µg/mL (≈ 0.467 mM) | 400 µg/mL (≈ 1.87 mM) | 100 µg/mL (≈ 0.467 mM) | 400 µg/mL (≈ 1.87 mM) | 200 µg/mL (≈ 0.933 mM) | 200 µg/mL (≈ 0.933 mM) | 400 µg/mL (≈ 1.87 mM) | 400 µg/mL (≈ 1.87 mM) | 400 µg/mL (≈ 1.87 mM) | CC1CCC(C(C)C)C(OCCCO)C1 (stereo not shown) [CA15, 3-menthoxypropan-1-ol]
> 1600 µg/mL | > 1600 µg/mL | > 1600 µg/mL | 1600 µg/mL (≈ 9.29 mM) | > 1600 µg/mL | 1600 µg/mL (≈ 9.29 mM) | > 1600 µg/mL | > 1600 µg/mL | > 1600 µg/mL | > 1600 µg/mL | > 1600 µg/mL | > 1600 µg/mL | CC1CCC(C(C)(C)O)C(O)C1 (stereo not shown) [CA38, p-menthane-3,8-diol, reference compound]
800 µg/mL (≈ 3.27 mM) | 800 µg/mL (≈ 3.27 mM) | 800 µg/mL (≈ 3.27 mM) | 100 µg/mL (≈ 0.409 mM) | 800 µg/mL (≈ 3.27 mM) | 100 µg/mL (≈ 0.409 mM) | 800 µg/mL (≈ 3.27 mM) | 800 µg/mL (≈ 3.27 mM) | 800 µg/mL (≈ 3.27 mM) | 800 µg/mL (≈ 3.27 mM) | 800 µg/mL (≈ 3.27 mM) | 800 µg/mL (≈ 3.27 mM) | CC1CCC(C(C)C)C(OCCOCCO)C1 (stereo not shown) [CA55, 2-(2-menthoxyethoxy)ethanol]
50 µg/mL (≈ 0.236 mM) | 100 µg/mL (≈ 0.471 mM) | 100 µg/mL (≈ 0.471 mM) | 50 µg/mL (≈ 0.236 mM) | 100 µg/mL (≈ 0.471 mM) | – | 200 µg/mL (≈ 0.942 mM) | 200 µg/mL (≈ 0.942 mM) | 200 µg/mL (≈ 0.942 mM) | 100 µg/mL (≈ 0.471 mM) | 50 µg/mL (≈ 0.236 mM) | 100 µg/mL (≈ 0.471 mM) | CC1CCC(C(C)C)C(OC(=O)C=O)C1 (stereo not shown) [CA MGH, menthyl glyoxylate]
> 1600 µg/mL | > 1600 µg/mL | > 1600 µg/mL | > 1600 µg/mL | > 1600 µg/mL | > 1600 µg/mL | > 1600 µg/mL | > 1600 µg/mL | > 1600 µg/mL | > 1600 µg/mL | – | – | CNC(=O)C(C)(C(C)C)C(C)C [WS-23, N-methyl-2-isopropyl-2,3-dimethylbutanamide, reference compound]
1600 µg/mL (≈ 10.2 mM) | 1600 µg/mL (≈ 10.2 mM) | 1600 µg/mL (≈ 10.2 mM) | 1600 µg/mL (≈ 10.2 mM) | > 1600 µg/mL | 1600 µg/mL (≈ 10.2 mM) | 1600 µg/mL (≈ 10.2 mM) | 1600 µg/mL (≈ 10.2 mM) | 1600 µg/mL (≈ 10.2 mM) | 1600 µg/mL (≈ 10.2 mM) | 1600 µg/mL (≈ 10.2 mM) | 1600 µg/mL (≈ 10.2 mM) | CC1CCC(C(C)C)C(O)C1 (stereo not drawn) [l-menthol, menthol, reference compound]

Compound | MIC [1] | MIC [2] | MIC [3] | MIC [4] | MIC [5] | MIC [6] | MIC [7] | MIC [8] | MIC [9] | MIC [10] | MIC [11] | MIC [12]
CC1CCC(C(C)C)C(OCC(C)(O)CO)C1 (stereo not shown) [CA1, 2-methyl-3-(menthoxy)propane-1,2-diol] | 400 µg/mL (≈ 1.64 mM) | 800 µg/mL (≈ 3.27 mM) | 800 µg/mL (≈ 3.27 mM) | 100 µg/mL (≈ 0.409 mM) | 800 µg/mL (≈ 3.27 mM) | 200 µg/mL (≈ 0.818 mM) | 800 µg/mL (≈ 3.27 mM) | 400 µg/mL (≈ 1.64 mM) | < 50 µg/mL | 400 µg/mL (≈ 1.64 mM) | 800 µg/mL (≈ 3.27 mM) | 800 µg/mL (≈ 3.27 mM)
